Measurements published in EP4548971A1, “1,4-BENZOTHIAZEPINES AND RELATED COMPOUNDS WITH CYCLOPROPANOL GROUPS AS MULTI-TARGETED DRUGS” (Georg-August-Universität Göttingen Stiftung Öffentlichen …, priority 2023, dated 2025).
pEC50, pIC50: −log10 of the molar value.

Tests used:
[1] = system: saponin-permeabilized ventricular cardiomyocytes (sp-vCM) from WT mice; assay: Ca2+ wave decay in saponin-permeabilized ventricular cardiomyocytes, WT mice; format: cell-based; details: 10 µM, result in words
From the text: (§1) • Figure 1: Synthesis scheme showing the synthesis of multifunctional compounds with cyclopropanol residues based on 1,4 -benzothiazepines. The respective reaction conditions (a) to (i) are as follows: (a) Jones reagent, aceton; (b) H2SO4, EtOH; (c) EtMgBr, Ti(OiPr)4, EtzO; (d) t-BuMe2SiOSO2CF3, 2,6-lutidine, DCM; (e) Hz, Pd/C, THF; (f) Dess-Martin reagent, DCM; (g) K2CO3, 1,4-dioxane; (h) N2H4*H2O, EtOH; (i) Na(CH3COO)3BH, 1,2-dichloroethane; (j) NaH, DMF; (k) aq. HF (55%), MeCN or 1 M n-Bu4NF in THF or KF, Et3N*HCl, MeOH. m,n = 2-8. • Figure 2: Synthesis scheme showing the synthesis of multifunctional compounds with cyclopropanol residues based on the "open" analogs 1,4 -benzothiazepines (i.e. 3-[(4-methoxyphenyl)oxy]-and 3-[(4-methoxyphenylthio)]propane-1-amine derivatives). […] Values represent the mean ± S.D., *** P < 0.0005, **** P < 0.0001 vs. DMSO by unpaired t test; n = 6 - 28. • Figure 6: Time-lapse fluorescence measurements using TECAN Spark 20M plate reader with HEK293 cells expressing WT RyR2 and R-CEPIA1er indicator. […] Fluorescence ratio F/F0, where F0 - average fluorescence signal for the first 90 seconds, F- average fluorescence signal for the last 100 s, was taken for the calculations. […] Data sets were analyzed by unpaired Student's t-test. n.s. non-significant with P=0.59 for Dan, **, P<0.01 with P=0.003 for S36, and *, P<0.05 with P=0.019 for GM1869; (D, E, F) Relative changes in the decay time tau of Ca2+ transients from spontaneous Ca2+ waves (in control/drug) by Dan (D, 10µM), S36 (E, 10 µM), and GM1869 (F, 10 µM) in cardiomyocytes from WT and RyR2R2474S/+ mice. […] Rise times represent the tau values calculated by a mono-exponential fit of the Ca2+ transients from start to the peak of the signal. Ca2+ transients were recorded in control conditions and every 2 min (S36) or 4 min (GM1869) after drug application. **, P = 0.0065 for S36; ****, P = 0.000019 for GM1869, evaluated by paired Student's t-test. […] Decay times represent the tau values calculated by a mono-exponential fit of the Ca2+ transients from half maximum to baseline of the signal. […]

[2] = system: RyR2-WT iPSC cardiomyocytes; assay: Electrically induced Ca2+ transients in intact iPSC-derived cardiomyocytes, RyR2-WT; format: cell-based, human; details: estimated from non-linear fit; for pIC50: read-out: IC50 values for the rise times of Ca2+ transients
From the text: (§2) • Figure 1: Synthesis scheme showing the synthesis of multifunctional compounds with cyclopropanol residues based on 1,4 -benzothiazepines. The respective reaction conditions […] are as follows: (a) Jones reagent, aceton; (b) H2SO4, EtOH; (c) EtMgBr, Ti(OiPr)4, EtzO; (d) t-BuMe2SiOSO2CF3, 2,6-lutidine, DCM; (e) Hz, Pd/C, THF; (f) Dess-Martin reagent, DCM; (g) K2CO3, 1,4-dioxane; (h) N2H4*H2O, EtOH; (i) Na(CH3COO)3BH, 1,2-dichloroethane; (j) NaH, DMF; (k) aq. HF (55%), MeCN or 1 M n-Bu4NF in THF or KF, Et3N*HCl, MeOH. m,n = 2-8. • Figure 2: Synthesis scheme showing the synthesis of multifunctional compounds with cyclopropanol residues based on the "open" analogs 1,4 -benzothiazepines (i.e. 3-[(4-methoxyphenyl)oxy]-and 3-[(4-methoxyphenylthio)]propane-1-amine derivatives). […] Values represent the mean ± S.D., *** P < 0.0005, **** P < 0.0001 vs. DMSO by unpaired t test; n = 6 - 28. • Figure 6: Time-lapse fluorescence measurements using TECAN Spark 20M plate reader with HEK293 cells expressing WT RyR2 and R-CEPIA1er indicator. (a) R-CEPIA1er assay, control (0.1 v/v% DMSO) or 100 µM of compound 14a was injected at 90 seconds (arrow). Fluorescence ratio F/F0, where F0 - average fluorescence signal for the first 90 seconds, F- average fluorescence signal for the last 100 s, was taken for the calculations. (b-d) Dose-response effects of compounds 13 and 14 on [Ca^2+]ER in HEK293-RyR2-R-CEPIA1er cells. […] Data sets were analyzed by unpaired Student's t-test. n.s. non-significant with P=0.59 for Dan, **, P<0.01 with P=0.003 for S36, and *, P<0.05 with P=0.019 for GM1869; (D, E, F) Relative changes in the decay time tau of Ca2+ transients from spontaneous Ca2+ waves (in control/drug) by Dan (D, 10µM), S36 (E, 10 µM), and GM1869 (F, 10 µM) in cardiomyocytes from WT and RyR2R2474S/+ mice. […] Rise times represent the tau values calculated by a mono-exponential fit of the Ca2+ transients from start to the peak of the signal. Ca2+ transients were recorded in control conditions and every 2 min (S36) or 4 min (GM1869) after drug application. **, P = 0.0065 for S36; ****, P = 0.000019 for GM1869, evaluated by paired Student's t-test. […] Decay times represent the tau values calculated by a mono-exponential fit of the Ca2+ transients from half maximum to baseline of the signal. Ca2+ transients were recorded in control conditions and every 2 min (S36) or 4 min (GM1869) after drug application. Data sets were analyzed by paired Student's t-test. n.s., P = 0.14; **, P = 0.0043. […] Data from each experiment were normalized to the first transient recorded. […]

[3] = system: saponin-permeabilized ventricular cardiomyocytes (sp-vCM) from RyR2R2474S/+ mice; assay: Ca2+ wave decay in saponin-permeabilized ventricular cardiomyocytes, RyR2R2474S/+ mice; format: cell-based; details: 10 µM, result in words
From the text: as §1

[4] = system: RyR2-R2474S+/- iPSC cardiomyocytes; assay: Electrically induced Ca2+ transients in intact iPSC-derived cardiomyocytes, RyR2-R2474S+/-; format: cell-based, human; details: estimated from non-linear fit; for pIC50: read-out: IC50 values for the rise times of Ca2+ transients
From the text: as §2

[5] = Homo sapiens, iPSC, read-out: EC50 values for the decay times of Ca2+ transients

Row | Compound | Relative changes in the decay time tau of Ca2+ transients from spontaneous Ca2+ waves (in control/drug) [1] | pIC50 ([2]; Homo sapiens, iPSC) | EC50 values for the decay times of Ca2+ transients [2] | Relative changes in the decay time tau of Ca2+ transients from spontaneous Ca2+ waves (in control/drug) [3] | pIC50 ([4]; Homo sapiens, iPSC) | EC50 values for the decay times of Ca2+ transients [4] | pEC50 [2, 5] | pEC50 [4, 5]
1 | COc1ccc2c(c1)CN(C(=O)C(=O)O)CCS2 [Compound S36, reference compound] | not significantly different from 1 | 9.82 | no EC50 values were obtained | not significantly different from 1 | 10.40 | no EC50 values were obtained |  | 
2 | COc1ccc2c(c1)CN(CCCCN(CCCCC1(O)CC1)CCCCC1(O)CC1)CCS2 [Compound 14a, 1,1'-(((4-(7-Methoxy-2,3-dihydrobenzo[1,4-f]thiazepin-4(5H)-yl)butyl)azanediyl)bis(butane-4,1-diyl))bis(cyclopropan-1-ol)] | significantly below 1 | 10.60 |  | significantly below 1 | 10.35 |  | 10.01 | 10.15
